Test results taken from patent US8202996B2, “Crystalline forms of N-(tert-butoxycarbonyl)-3-methyl-L-valyl-(4R)-4-((7-chloro-4-methoxy-1-isoquinolinyl)oxy)-N- ((1R,2S)-1-((cyclopropylsulfonyl)carbamoyl)-2-vinylcyclopropyl)-L-prolinamide” (Bristol-Myers Squibb Company, priority 2007, dated 2012).

Key:
[1] = Interconversion of Forms H-1 and T1F-1/2 as a function of relative humidity; assay type: physicochemical; settings: solid state, FIG. 1
[2] = Crystal form in aqueous solution / suspension in water; assay type: physicochemical; settings: aqueous solutions / suspended in water

SMILES | relative humidity at which Compound (I) exists as this crystalline form [1] | relative humidity at which Compound (I) exists as a mixture of H-1 and T1F-1/2 [1] | form stability in water [2]
C=C[C@@H]1C[C@]1(NC(=O)[C@@H]1C[C@@H](Oc2ncc(OC)c3ccc(Cl)cc23)CN1C(=O)[C@@H](NC(=O)OC(C)(C)C)C(C)(C)C)C(=O)NS(=O)(=O)C1CC1 [Form H-1, N-(tert-butoxycarbonyl)-3-methyl-L-valyl-(4R)-4-((7-chloro-4-methoxy-1-isoquinolinyl)oxy)-N-((1R,2S)-1-((cyclopropylsulfonyl)carbamoyl)-2-vinylcyclopropyl)-L-prolinamide] | > 45 % relative humidity | – | –
C=C[C@@H]1C[C@]1(NC(=O)[C@@H]1C[C@@H](Oc2ncc(OC)c3ccc(Cl)cc23)CN1C(=O)[C@@H](NC(=O)OC(C)(C)C)C(C)(C)C)C(=O)NS(=O)(=O)C1CC1 [Compound (I), N-(tert-butoxycarbonyl)-3-methyl-L-valyl-(4R)-4-((7-chloro-4-methoxy-1-isoquinolinyl)oxy)-N-((1R,2S)-1-((cyclopropylsulfonyl)carbamoyl)-2-vinylcyclopropyl)-L-prolinamide] | – | 15-45 % relative humidity | exists as H-1
C=C[C@@H]1C[C@]1(NC(=O)[C@@H]1C[C@@H](Oc2ncc(OC)c3ccc(Cl)cc23)CN1C(=O)[C@@H](NC(=O)OC(C)(C)C)C(C)(C)C)C(=O)NS(=O)(=O)C1CC1 [Form T1F-1/2, N-(tert-butoxycarbonyl)-3-methyl-L-valyl-(4R)-4-((7-chloro-4-methoxy-1-isoquinolinyl)oxy)-N-((1R,2S)-1-((cyclopropylsulfonyl)carbamoyl)-2-vinylcyclopropyl)-L-prolinamide] | < 15 % relative humidity | – | rapidly converts to H-1
